Measured values as given in US11731943B2, “Therapeutic compounds, compositions and methods of use thereof” (priority 2016, dated 2023).
Where two headings read alike, the source gives them in different places.

What was measured:
[1] = tested on: JAK1-dependent STAT6 phosphorylation downstream of IL-13 stimulation in BEAS-2B human bronchial epithelial cells; test: JAK1 pathway assay in BEAS-2B cells (IL-13-pSTAT6, MSD); type: cell-based; conditions: Homo sapiens, BEAS-2B
[2] = target: isolated recombinant JAK2 kinase domain (Homo sapiens (Human), UniProt O60674); test: JAK2 enzyme assay (Caliper LabChip, Ki); type: biochemical
isolated recombinant JAK2 kinase domain, sequence (O60674 849-1124): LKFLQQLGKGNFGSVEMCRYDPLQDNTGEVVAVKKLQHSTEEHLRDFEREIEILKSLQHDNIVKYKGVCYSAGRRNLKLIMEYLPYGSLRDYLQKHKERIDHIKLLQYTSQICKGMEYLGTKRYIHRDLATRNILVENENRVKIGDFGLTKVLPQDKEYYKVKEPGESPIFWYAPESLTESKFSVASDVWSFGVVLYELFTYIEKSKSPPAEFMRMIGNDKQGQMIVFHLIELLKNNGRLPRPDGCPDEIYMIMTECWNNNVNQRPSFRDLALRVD
Method in brief: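 Recombinant human JAK1 or JAK2 kinase domain phosphorylating a 5-carboxyfluorescein-labelled JAK3-derived peptide; 30 min at 22 °C, stopped with EDTA (50 mM final). Phosphorylated product measured as a fraction of total peptide by Caliper LabChip mobility shift.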

[3] = target: isolated recombinant JAK1 kinase domain (Homo sapiens (Human), UniProt P23458); test: JAK1 enzyme assay (Caliper LabChip, Ki); type: biochemical
isolated recombinant JAK1 kinase domain, sequence (P23458 875-1153): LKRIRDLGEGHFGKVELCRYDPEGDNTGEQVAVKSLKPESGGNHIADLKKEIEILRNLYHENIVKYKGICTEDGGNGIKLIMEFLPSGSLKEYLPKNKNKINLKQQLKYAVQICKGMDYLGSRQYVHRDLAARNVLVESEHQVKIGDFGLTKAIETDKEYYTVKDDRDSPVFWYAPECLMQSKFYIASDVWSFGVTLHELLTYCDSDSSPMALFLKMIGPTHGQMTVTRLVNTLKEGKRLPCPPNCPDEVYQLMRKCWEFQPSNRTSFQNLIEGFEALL
Method in brief: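 Recombinant human JAK1 kinase domain phosphorylating an N-terminally 5-carboxyfluorescein-labelled JAK3-derived peptide, 30 min at 22 °C, stopped with EDTA (50 mM final). Phosphorylated fraction of total peptide read by Caliper LabChip mobility shift; Ki from Morrison tight-binding fit corrected for ATP competition (Ki=Ki,app/(1+[ATP]/Km,app)).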

[4] = BEAS-2B cells, IL-13 stimulation, read-out: IL-13 p-STAT6 BEAS-2B IC50

C#Cc1ccc(CN2CCC(CC#N)(n3cc(C(N)=O)c(NC(=O)C4CC4)n3)C(F)C2)cc1 (stereo not drawn) [Example 260, 1-[4-(cyanomethyl)-1-[(4-ethynylphenyl)methyl]-3-fluoro-4-piperidyl]-3-(cyclopropanecarbonylamino) pyrazole-4-carboxamide]
IC50 [1, 4]: 32 nM | Ki [2]: 0.35 nM | Ki ([3]; read-out: JAK1 Ki): 0.25 nM

N#CCC1(n2cc(C(N)=O)c(NC(=O)C3CC3)n2)CCC(Nc2ccc(-c3ccccc3)cc2)CC1 (stereo not drawn) [Example 245, 1-[1-(cyanomethyl)-4-(4-phenylanilino)cyclohexyl]-3-(cyclopropanecarbonylamino) pyrazole-4-carboxamide]
IC50 [1, 4]: 14 nM | Ki [2]: 0.92 nM | Ki ([3]; read-out: JAK1 Ki): 0.23 nM

C=Cc1ccc(CN2CCC(CC#N)(n3cc(C(N)=O)c(NC(=O)OC)n3)C(F)C2)cc1O (stereo not drawn) [Example 284, methyl N-[4-carbamoyl-1-[4-(cyanomethyl)-3-fluoro-1-[(3-hydroxy-4-vinyl-phenyl)methyl]-4-piperidyl]pyrazol-3-yl]carbamate]
IC50 [1, 4]: 48 nM | Ki [2]: 0.5 nM | Ki ([3]; read-out: JAK1 Ki): 0.3 nM

N#CCC1(n2cc(C(N)=O)c(NC(=O)C3CC3)n2)CCN(Cc2ccc(F)cc2)CC1 [Example 57]
IC50 [1, 4]: 128 nM | Ki [2]: 49 nM | Ki ([3]; read-out: JAK1 Ki): 3.9 nM

CCc1ccc(-c2ccc(CN3CCC(CC#N)(n4cc(C(N)=O)c(NC(=O)C5CC5C#N)n4)C(F)C3)cc2O)cc1 (stereo not drawn) [Example 221, 3-[(2-cyanocyclopropanecarbonyl)amino]-1-[4-(cyanomethyl)-1-[[4-(4-ethylphenyl)-3-hydroxy-phenyl]methyl]-3-fluoro-4-piperidyl]pyrazole-4-carboxamide]
IC50 [1, 4]: 90 nM | Ki [2]: 1.7 nM | Ki ([3]; read-out: JAK1 Ki): 0.3 nM

CCc1cccc(-c2ccc(CN3CCC(CC#N)(n4cc(C(N)=O)c(NC(=O)C5CC5)n4)CC3)cc2)c1 [Example 154, 1-[4-(cyanomethyl)-1-[[4-(3-ethylphenyl)phenyl]methyl]-4-piperidyl]-3-(cyclopropanecarbonylamino) pyrazole-4-carboxamide]
IC50 [1, 4]: 116 nM | Ki [2]: 8.7 nM | Ki ([3]; read-out: JAK1 Ki): 1.5 nM

N#CCC1(n2cc(C(N)=O)c(NC(=O)C3CC3)n2)CCN(Cc2ccc(-n3nccn3)c(O)c2)CC1 [Example 277, 1-[4-(cyanomethyl)-1-[[3-hydroxy-4-(triazol-2-yl)phenyl]methyl]-4-piperidyl]-3-(cyclopropanecarbonylamino) pyrazole-4-carboxamide]
IC50 [1, 4]: 40 nM | Ki [2]: 1.9 nM | Ki ([3]; read-out: JAK1 Ki): 0.74 nM

N#CCC1(n2cc(C(N)=O)c(NC(=O)C3CC3)n2)CCN(Cc2ccc(I)cc2)CC1 [Example 55]
IC50 [1, 4]: 98 nM | Ki [2]: 31.4 nM | Ki ([3]; read-out: JAK1 Ki): 3.2 nM

COC(=O)Nc1nn(C2(CC#N)CCN(Cc3ccc(-c4ccccc4)c(O)c3F)CC2F)cc1C(N)=O (stereo not drawn) [Example 263, methyl N-[4-carbamoyl-1-[4-(cyanomethyl)-3-fluoro-1-[(2-fluoro-3-hydroxy-4-phenyl-phenyl)methyl]-4-piperidyl]pyrazol-3-yl]carbamate]
IC50 [1, 4]: 25 nM | Ki [2]: 0.24 nM | Ki ([3]; read-out: JAK1 Ki): 0.3 nM

COC(=O)Nc1nn(C2(CC#N)CCN(Cc3ccc(-c4ccoc4)nc3F)CC2F)cc1C(N)=O (stereo not drawn) [Example 239, methyl N-[4-carbamoyl-1-[4-(cyanomethyl)-3-fluoro-1-[[2-fluoro-6-(3-furyl)-3-pyridyl]methyl]-4-piperidyl]pyrazol-3-yl]carbamate]
IC50 [1, 4]: 67 nM | Ki [2]: 0.89 nM | Ki ([3]; read-out: JAK1 Ki): 0.51 nM

COC(=O)Nc1nn(C2(CC#N)CCN(Cc3ccc(C4=CCCCC4)c(O)c3)CC2F)cc1C(N)=O (stereo not drawn) [Example 258, methyl N-[4-carbamoyl-1-[4-(cyanomethyl)-1-[[4-(cyclohexen-1-yl)-3-hydroxy-phenyl]methyl]-3-fluoro-4-piperidyl]pyrazol-3-yl]carbamate]
IC50 [1, 4]: 34 nM | Ki [2]: 0.29 nM | Ki ([3]; read-out: JAK1 Ki): 0.34 nM

CC(C)S(=O)(=O)Nc1cccc(CN2CCC(CC#N)(n3cc(C(N)=O)c(NC(=O)C4CC4)n3)CC2)c1 [Example 94]
IC50 [1, 4]: > 1000 nM | Ki [2]: 21.8 nM | Ki ([3]; read-out: JAK1 Ki): 4.1 nM

COC(=O)Nc1nn(C2(CC#N)CCN(Cc3ccc(-c4ccccc4)c(O)c3)CC2)cc1C(N)=O [Example 186, Methyl (4-carbamoyl-1-(4-(cyanomethyl)-1-((2-hydroxy-[1,1′-biphenyl]-4-yl) Methyl)piperidin-4-yl)-1H-pyrazol-3-yl)carbamate]
IC50 [1, 4]: 68 nM | Ki [2]: 1 nM | Ki ([3]; read-out: JAK1 Ki): 0.24 nM

N#CCC1(n2cc(C(N)=O)c(NC(=O)C3CC3)n2)CCN(C(=O)OCC(F)(F)F)CC1 [Example 167, 2,2,2-trifluoroethyl 4-[4-carbamoyl-3-(cyclopropanecarbonylamino)pyrazol-1-yl]-4-(cyanomethyl)piperidine-1-carboxylate]
IC50 [1, 4]: 833 nM | Ki [2]: 28.7 nM | Ki ([3]; read-out: JAK1 Ki): 2.3 nM

CC[C@]1(n2cc(C(N)=O)c(Nc3ccc(S(C)(=O)=O)cc3)n2)CC[C@H](N2CC(C(F)(F)F)C2)CC1 [Example 302, 1-((1S,4S)-1-ethyl-4-(3-(trifluoromethyl)azetidin-1-yl)cyclohexyl)-3-((4-(methylsulfonyl)phenyl)amino)-1H-pyrazole-4-carboxamide]
IC50 [1, 4]: 43 nM | Ki [2]: 2 nM | Ki ([3]; read-out: JAK1 Ki): 0.94 nM

N#CCC1(n2cc(C(N)=O)c(NC(=O)C3CC3)n2)CCN(Cc2ccc(-c3ccc(Cl)s3)cc2)CC1 [Example 148, 1-[1-[[4-(5-chloro-2-thienyl)phenyl]methyl]-4-(cyanomethyl)-4-piperidyl]-3-(cyclopropanecarbonylamino) pyrazole-4-carboxamide]
IC50 [1, 4]: 48 nM | Ki [2]: 21.2 nM | Ki ([3]; read-out: JAK1 Ki): 1.8 nM

N#CC[C@]1(n2cc(C(N)=O)c(NC(=O)C3CC3)n2)CC[C@@H](N2CC(F)(F)C2)CC1 [Example 178, 1-[1-(cyanomethyl)-4-(3,3-difluoroazetidin-1-yl)cyclohexyl]-3-(cyclopropanecarbonylamino) pyrazole-4-carboxamide]
IC50 ([1]; read-out: IL-13 p-STAT6 BEAS-2B IC50, BEAS-2B cells, IL-13 stimulation): 167 nM | Ki [2]: 18.4 nM | Ki [3]: 4.7 nM

COC(=O)Nc1nn(C2(CC#N)CCN(Cc3ccc(C4=CCCC4)cc3)CC2F)cc1C(N)=O (stereo not drawn) [Example 268, methyl N-[4-carbamoyl-1-[4-(cyanomethyl)-1-[[4-(cyclopenten-1-yl)phenyl]methyl]-3-fluoro-4-piperidyl]pyrazol-3-yl]carbamate]
IC50 [1, 4]: 43 nM | Ki [2]: 1.9 nM | Ki ([3]; read-out: JAK1 Ki): 0.9 nM

COC(=O)Nc1nn(C2(CC#N)CCN(Cc3ccc(-c4ccco4)c(O)c3)CC2F)cc1C(N)=O (stereo not drawn) [Example 224, methyl N-[4-carbamoyl-1-[4-(cyanomethyl)-3-fluoro-1-[[4-(2-furyl)-3-hydroxy-phenyl]methyl]-4-piperidyl]pyrazol-3-yl]carbamate]
IC50 [1, 4]: 19 nM | Ki [2]: 0.15 nM | Ki ([3]; read-out: JAK1 Ki): 0.16 nM

N#CCC1(n2cc(C(N)=O)c(NC(=O)C3CC3)n2)CCC(Nc2ccccc2Cl)CC1 (stereo not drawn) [Example 290, 1-[4-(2-chloroanilino)-1-(cyanomethyl)cyclohexyl]-3-(cyclopropanecarbonylamino) pyrazole-4-carboxamide]
IC50 [1, 4]: 82 nM | Ki [2]: 13 nM | Ki ([3]; read-out: JAK1 Ki): 1.1 nM

COC1CN([C@H]2CC[C@@](CC#N)(n3cc(C(N)=O)c(NC(=O)C4CC4)n3)CC2)C1 [Example 102]
IC50 [1, 4]: 933 nM | Ki [2]: 31.8 nM | Ki [3]: 3.3 nM

CC1(Oc2ccc(C(F)(F)F)cc2)CN(C2CCC(CC#N)(n3cc(C(N)=O)c(NC(=O)C4CC4)n3)CC2)C1 (stereo not drawn) [Example 295, 1-[1-(cyanomethyl)-4-[3-methyl-3-[4-(trifluoromethyl)phenoxy]azetidin-1-yl]cyclohexyl]-3-(cyclopropanecarbonylamino) pyrazole-4-carboxamide]
IC50 [1, 4]: 85 nM | Ki [2]: 2.9 nM | Ki ([3]; read-out: JAK1 Ki): 2 nM

N#CCC1(n2cc(C(N)=O)c(NC(=O)C3CC3)n2)CCN(Cc2ccccc2Cl)CC1 [Example 58]
IC50 [1, 4]: 287 nM | Ki [2]: 42.6 nM | Ki ([3]; read-out: JAK1 Ki): 4.4 nM

N#CCC1(n2cc(C(N)=O)c(NC(=O)C3CC3)n2)CCC(Nc2ccc(-c3ccco3)cc2)CC1 (stereo not drawn) [Example 276, 1-[1-(cyanomethyl)-4-[4-(2-furyl)anilino]cyclohexyl]-3-(cyclopropanecarbonylamino) pyrazole-4-carboxamide]
IC50 [1, 4]: 9 nM | Ki [2]: 2.2 nM | Ki ([3]; read-out: JAK1 Ki): 0.25 nM

N#CCC1(n2cc(C(N)=O)c(NC(=O)C3CC3)n2)CCN(C(=O)CCC(F)(F)F)CC1 [Example 169, 1-[4-(cyanomethyl)-1-(4,4,4-trifluorobutanoyl)-4-piperidyl]-3-(cyclopropanecarbonylamino) pyrazole-4-carboxamide]
IC50 [1, 4]: > 1000 nM | Ki [2]: 48.3 nM | Ki ([3]; read-out: JAK1 Ki): 3.7 nM

N#CCC1(n2cc(C(N)=O)c(NC(=O)C3CC3)n2)CCN(Cc2ccc(-c3ccccc3F)cc2)CC1 [Example 142, 1-[4-(cyanomethyl)-1-[[4-(2-fluorophenyl)phenyl]methyl]-4-piperidyl]-3-(cyclopropanecarbonylamino) pyrazole-4-carboxamide]
IC50 [1, 4]: 60 nM | Ki [2]: 12.9 nM | Ki ([3]; read-out: JAK1 Ki): 1.7 nM

N#CCC1(n2cc(C(N)=O)c(NC(=O)C3CC3)n2)CCN(Cc2ccc(-n3nccn3)cc2)CC1 [Example 89]
IC50 [1, 4]: 119 nM | Ki [2]: 6.8 nM | Ki ([3]; read-out: JAK1 Ki): 0.7 nM

N#CCC1(n2cc(C(N)=O)c(NC(=O)C3CC3)n2)CCN(Cc2ccccc2F)CC1 [Example 184, 1-[4-(cyanomethyl)-1-[(2-fluorophenyl)methyl]-4-piperidyl]-3-(cyclopropanecarbonylamino) pyrazole-4-carboxamide]
IC50 [1, 4]: 177 nM | Ki [2]: 160 nM | Ki ([3]; read-out: JAK1 Ki): 90.4 nM
